Entries after “also recorded” stand apart in the source; their conditions may differ.
Tests used:
Assay type in all cases: cell-based
Acinetobacter baumannii = experiment: Disk diffusion test on Acinetobacter baumannii
From the text: (§1) Applicants undertook two rounds of studies. […] When agar plating was required, both rounds of Applicants' studies were undertaken using similar disk diffusion methods on bacteria grown on agar substrates in Petri dishes. These methods conform to those prescribed by the Clinical & Laboratory Standards Institute (https://clsi.org). […]

Pseudomonas aeruginosa = experiment: Disk diffusion test on Pseudomonas aeruginosa
From the text: as §1

Klebsiella pneumoniae = experiment: Disk diffusion test on Klebsiella pneumoniae; settings: for antibacterial activity of the agent by itself: single agent disk, ceftazidime 30 μg, meropenem 10 μg, Compound C 15 μg
From the text: (§2) Applicants undertook two rounds of studies. The results of the first round are illustrated in FIGS. 1A-9B and discussed in the related text. The results of the second round of studies are illustrated in FIGS. 10-23 and discussed in the related text. When agar plating was required, both rounds of Applicants' studies were undertaken using similar disk diffusion methods on bacteria grown on agar substrates in Petri dishes. These methods conform to those prescribed by the Clinical & Laboratory Standards Institute (https://clsi.org).
(§3) Disk Diffusion tests with beta-lactam antibiotics with and without the beta-lactamase inhibitor of FIG. 1A. Closely spaced disks disclose possible synergistic or inhibitory effects between the antibiotics and the compound of FIG. 1A (labeled in FIGS. 4A-9B as Compound C). The distances between disks show the effectiveness of the possible synergy. […] Each disk contains either the compound of FIG. 1A or an antibiotic (one of FIGS. 3A-3D), or the compound of […] and an antibiotic (one of FIGS. 3A-3D). When a disk with the compound of FIG. 1A is in proximity to a disk with an antibiotic both agents diffuse into the bacterial growth medium, allowing us to observe the area where both agents are present at the same time. These disk diffusion tests were evaluated with the following:
(§4) As noted above, Applicants' studies were undertaken using similar disk diffusion methods on bacteria grown on agar substrates in Petri dishes. These methods conform to those prescribed by the Clinical & Laboratory Standards Institute (https://clsi.org).

Citrobacter freundii = experiment: Disk diffusion test on Citrobacter freundii
From the text: as §1

[1] = system: methicillin-resistant coagulase-negative Staphylococcus sps. (MRCoNS); experiment: Disk diffusion test on MRCoNS; settings: for antibacterial activity of the agent by itself: single agent disk, penicillin G 10 μg, cefoxitin 30 μg, Compound C 15 μg
From the text: as §2, §3, §4

[2] = system: MSSA (methicillin-sensitive Staphylococcus aureus); experiment: Disk diffusion test on Staphylococcus aureus (MSSA); settings: for action of the antibiotic by itself on the Staphylococcus aureus strain: used either separately or in combination
From the text: as §1

Escherichia coli = experiment: Disk diffusion test on Escherichia coli
From the text: as §1

[3] = in combination with ceftazidime
[4] = in combination with piperacillin
[5] = in combination with ceftazidime (second round)
[6] = in combination with meropenem (second round)
[7] = in combination with ceftriaxone

SMILES | effectiveness of the combination with antibiotic (Acinetobacter baumannii; in combination with cefepime) | effectiveness of the combination with antibiotic (Acinetobacter baumannii; [3]) | effectiveness of the combination with antibiotic (Acinetobacter baumannii; in combination with meropenem) | effectiveness of the combination with antibiotic (Pseudomonas aeruginosa; in combination with aztreonam) | effectiveness of the combination with antibiotic (Pseudomonas aeruginosa; in combination with cefepime) | effectiveness of the combination with antibiotic (Pseudomonas aeruginosa; in combination with meropenem) | effectiveness of the combination with antibiotic (Pseudomonas aeruginosa; [4]) | effectiveness of the combination with antibiotic (Klebsiella pneumoniae; [5]) | also measured
OB(O)c1cc(F)cc(F)c1F [2,3,5-Trifluorophenylboronic acid] | enhanced effectiveness | enhanced effectiveness | enhanced effectiveness | enhanced effectiveness | enhanced effectiveness | enhanced effectiveness | enhanced effectiveness | – | effectiveness of the combination with antibiotic (Pseudomonas aeruginosa; [3]): enhanced effectiveness
Nc1cc(B(O)O)cc(C(=O)O)c1 [3-Amino-5-carboxylphenylboronic acid] | enhanced effectiveness | – | – | – | – | – | – | – | –
O=C(O)c1cccc(B(O)O)c1F [3-Carboxy-2-fluorophenylboronic acid] | enhanced effectiveness | enhanced effectiveness | enhanced effectiveness | – | partial effectiveness | partial effectiveness | partial effectiveness | enhanced effectiveness | effectiveness of the combination with antibiotic (Klebsiella pneumoniae; in combination with cefepime): enhanced effectiveness; effectiveness of the combination with antibiotic (Klebsiella pneumoniae; [6]): enhanced effectiveness; effectiveness of the combination with antibiotic (Citrobacter freundii; in combination with meropenem): partial effectiveness
O=C(O)c1cc(B(O)O)ccc1Cl [5-Borono-2-chlorobenzoic acid] | enhanced effectiveness | enhanced effectiveness | enhanced effectiveness | – | – | – | – | enhanced effectiveness | effectiveness of the combination with antibiotic (Klebsiella pneumoniae; in combination with cefepime): enhanced effectiveness
O=C(O)c1cc(B(O)O)ccc1F [5-Borono-2-fluorobenzoic acid] | enhanced effectiveness | – | enhanced effectiveness | enhanced effectiveness | enhanced effectiveness | – | enhanced effectiveness | – | –
O=C(O)c1ccc(Cl)c(B(O)O)c1 [5-Carboxy-2-chlorophenylboronic acid] | enhanced effectiveness | enhanced effectiveness | – | – | – | enhanced effectiveness | enhanced effectiveness | enhanced effectiveness | effectiveness of the combination with antibiotic (Klebsiella pneumoniae; in combination with cefepime): enhanced effectiveness; effectiveness of the combination with antibiotic (Citrobacter freundii; in combination with meropenem): partial enhanced effectiveness
O=C(O)c1ccc(F)c(B(O)O)c1 [5-Carboxy-2-fluorophenylboronic Acid] | enhanced effectiveness | enhanced effectiveness | enhanced effectiveness | – | – | enhanced effectiveness | proved effective | enhanced effectiveness | effectiveness of the combination with antibiotic (Klebsiella pneumoniae; in combination with cefepime): enhanced effectiveness; effectiveness of the combination with antibiotic (Klebsiella pneumoniae; [6]): enhanced effectiveness
CC1(C)OB(c2ccc(C(=O)O)s2)OC1(C)C [5-Carboxythiophene-2-boronic acid pinacol ester] | enhanced effectiveness | enhanced effectiveness | enhanced effectiveness | enhanced effectiveness | partial effectiveness | – | – | enhanced effectiveness | effectiveness of the combination with antibiotic (Klebsiella pneumoniae; [7]): enhanced effectiveness; effectiveness of the combination with antibiotic (Klebsiella pneumoniae; [6]): enhanced effectiveness; effectiveness of the combination with antibiotic ([1]; in combination with ampicillin): enhanced effectiveness; effectiveness of the combination with antibiotic ([1]; in combination with penicillin G (second round)): enhanced effectiveness; effectiveness of the combination with antibiotic ([2]; in combination with ampicillin): enhanced effectiveness; effectiveness of the combination with antibiotic ([2]; in combination with penicillin G): enhanced effectiveness; effectiveness of the combination with antibiotic (Escherichia coli; in combination with amoxycillin): enhanced effectiveness; effectiveness of the combination with antibiotic (Escherichia coli; [3]): enhanced effectiveness; effectiveness of the combination with antibiotic (Escherichia coli; [7]): enhanced effectiveness; effectiveness of the combination with antibiotic (Escherichia coli; in combination with meropenem): enhanced effectiveness; effectiveness of the combination with antibiotic (Citrobacter freundii; [3]): enhanced effectiveness; effectiveness of the combination with antibiotic (Citrobacter freundii; [7]): enhanced effectiveness; effectiveness of the combination with antibiotic (Citrobacter freundii; in combination with meropenem): enhanced effectiveness; effectiveness of the combination with antibiotic (Pseudomonas aeruginosa; in combination with cefoperazone): enhanced effectiveness
O=C(O)c1cc(B(O)O)cc([N+](=O)[O-])c1 [Benzoic acid, 3-borono-5-nitro] | enhanced effectiveness | – | – | enhanced effectiveness | enhanced effectiveness | – | – | – | –
CO[C@@]1(NC(=O)Cc2cccs2)C(=O)N2C(C(=O)O)=C(COC(N)=O)CS[C@@H]21 [Cefoxitin, cefoxitin, reference compound] | – | – | – | – | – | – | – | – | antibacterial activity of the agent by itself [1]: active on its own
CC(C)(O/N=C(\C(=O)N[C@@H]1C(=O)N2C(C(=O)[O-])=C(C[n+]3ccccc3)CS[C@H]12)c1csc(N)n1)C(=O)O [Ceftazidime, ceftazidime, reference compound] | – | – | – | – | – | – | – | – | antibacterial activity of the agent by itself (Klebsiella pneumoniae): very little antibacterial activity; also recorded: by itself is inactive
C[C@@H](O)[C@H]1C(=O)N2C(C(=O)O)=C(S[C@@H]3CN[C@H](C(=O)N(C)C)C3)[C@H](C)[C@H]12 [Meropenem, meropenem, reference compound] | – | – | – | – | – | – | – | – | antibacterial activity of the agent by itself (Klebsiella pneumoniae): by itself IS active
CC1(C)S[C@@H]2[C@H](NC(=O)Cc3ccccc3)C(=O)N2[C@H]1C(=O)O [Penicillin G, penicillin G, reference compound] | – | – | – | – | – | – | – | – | antibacterial activity of the agent by itself [1]: no activity by itself; antibacterial activity of the agent by itself ([1]; listed as penicillin G): no antibacterial activity; action of the antibiotic by itself on the Staphylococcus aureus strain [2]: completely resistant
CC1(C)OB(c2cccc(CC(=O)O)c2)OC1(C)C [Phenylacetic acid-3-boronic acid pinacol ester] | enhanced effectiveness | – | – | enhanced effectiveness | enhanced effectiveness | enhanced effectiveness | enhanced effectiveness | – | –
CC1(C)S[C@@H]2[C@H](NC(=O)[C@H](N)c3ccc(O)cc3)C(=O)N2[C@H]1C(=O)O [amoxicillin, reference compound] | – | – | – | – | – | – | – | – | action of the antibiotic by itself on the Staphylococcus aureus strain [2]: completely resistant
